# Results published in patent US20140179664A1, “Heterocyclyl Pyrimidine Analogues As JAK Inhibitors” (Cellzome Limited, priority 2011, published 2014).
# Experiments:
# JAK1 = molecular target: T1, JAK1 (Homo sapiens, UniProt P23458); test: Kinobeads assay, JAK1; type: binding; conditions: mixed Molt4/Ramos lysate, read-out: Inhibition values (IC50) JAK1
# T1 construct: endogenous in cells; host or cells: Molt4 (ATCC CRL-1582) and Ramos (ATCC CRL-1596), mixed lysate 1:2
# In short: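 Mixed Molt4/Ramos cell lysate (1:2) was incubated 3 hours in the cold with kinobeads and a 9-step 1:3 compound dilution series. The no-compound control carried 2% DMSO. Bead-bound JAK1 was eluted, detected by antibody dot blot with infrared fluorescence, and IC50 derived from dose-response curves.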
# JAK2 = molecular target: T2, JAK2 (Homo sapiens, UniProt O60674); test: Kinobeads assay, JAK2; type: binding; conditions: mixed Molt4/Ramos lysate, read-out: Inhibition values (IC50) JAK2
# T2 construct: endogenous in cells; host or cells: Molt4 (ATCC CRL-1582) and Ramos (ATCC CRL-1596), mixed lysate 1:2
# In short: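 Mixed Molt4/Ramos lysate (1:2, 10 mg/mL protein) was incubated 3 h in the cold with the immobilized aminopyrido-pyrimidine affinity matrix and compound, 9-step 1:3 dilutions. Bead-bound kinases were eluted and quantified by antibody dot blot with infrared detection. IC50s are from dose-response curves.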
# T1 sequence (P23458 whole entry): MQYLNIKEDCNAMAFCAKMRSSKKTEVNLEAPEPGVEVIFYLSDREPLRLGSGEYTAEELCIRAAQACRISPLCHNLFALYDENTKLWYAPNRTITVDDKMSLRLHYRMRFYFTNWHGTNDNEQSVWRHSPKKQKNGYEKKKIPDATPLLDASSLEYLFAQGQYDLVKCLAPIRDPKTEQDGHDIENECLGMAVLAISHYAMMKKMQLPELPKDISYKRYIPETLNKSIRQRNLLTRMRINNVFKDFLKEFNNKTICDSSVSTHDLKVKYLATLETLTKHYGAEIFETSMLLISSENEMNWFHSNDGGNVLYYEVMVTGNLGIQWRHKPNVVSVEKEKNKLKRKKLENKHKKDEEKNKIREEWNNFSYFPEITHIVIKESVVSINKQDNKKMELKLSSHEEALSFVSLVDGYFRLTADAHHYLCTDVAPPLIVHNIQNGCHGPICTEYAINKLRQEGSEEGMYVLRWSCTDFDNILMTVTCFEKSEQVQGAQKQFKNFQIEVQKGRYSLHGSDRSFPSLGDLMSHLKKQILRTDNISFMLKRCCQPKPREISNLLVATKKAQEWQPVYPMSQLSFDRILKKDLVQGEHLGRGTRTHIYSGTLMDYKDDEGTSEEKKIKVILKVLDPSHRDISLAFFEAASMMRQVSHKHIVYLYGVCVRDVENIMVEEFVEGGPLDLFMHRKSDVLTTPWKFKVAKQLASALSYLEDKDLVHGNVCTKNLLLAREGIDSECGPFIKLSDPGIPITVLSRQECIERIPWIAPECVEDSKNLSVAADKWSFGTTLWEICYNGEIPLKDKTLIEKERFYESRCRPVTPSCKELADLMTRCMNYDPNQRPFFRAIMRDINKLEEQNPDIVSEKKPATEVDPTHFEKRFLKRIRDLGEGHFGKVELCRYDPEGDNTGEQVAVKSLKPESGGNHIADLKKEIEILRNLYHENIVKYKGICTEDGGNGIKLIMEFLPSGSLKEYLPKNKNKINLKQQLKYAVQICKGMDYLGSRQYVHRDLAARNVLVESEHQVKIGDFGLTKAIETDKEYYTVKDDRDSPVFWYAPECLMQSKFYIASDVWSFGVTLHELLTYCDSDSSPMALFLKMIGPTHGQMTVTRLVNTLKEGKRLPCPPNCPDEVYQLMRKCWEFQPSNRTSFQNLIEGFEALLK
# T2 sequence (O60674 whole entry): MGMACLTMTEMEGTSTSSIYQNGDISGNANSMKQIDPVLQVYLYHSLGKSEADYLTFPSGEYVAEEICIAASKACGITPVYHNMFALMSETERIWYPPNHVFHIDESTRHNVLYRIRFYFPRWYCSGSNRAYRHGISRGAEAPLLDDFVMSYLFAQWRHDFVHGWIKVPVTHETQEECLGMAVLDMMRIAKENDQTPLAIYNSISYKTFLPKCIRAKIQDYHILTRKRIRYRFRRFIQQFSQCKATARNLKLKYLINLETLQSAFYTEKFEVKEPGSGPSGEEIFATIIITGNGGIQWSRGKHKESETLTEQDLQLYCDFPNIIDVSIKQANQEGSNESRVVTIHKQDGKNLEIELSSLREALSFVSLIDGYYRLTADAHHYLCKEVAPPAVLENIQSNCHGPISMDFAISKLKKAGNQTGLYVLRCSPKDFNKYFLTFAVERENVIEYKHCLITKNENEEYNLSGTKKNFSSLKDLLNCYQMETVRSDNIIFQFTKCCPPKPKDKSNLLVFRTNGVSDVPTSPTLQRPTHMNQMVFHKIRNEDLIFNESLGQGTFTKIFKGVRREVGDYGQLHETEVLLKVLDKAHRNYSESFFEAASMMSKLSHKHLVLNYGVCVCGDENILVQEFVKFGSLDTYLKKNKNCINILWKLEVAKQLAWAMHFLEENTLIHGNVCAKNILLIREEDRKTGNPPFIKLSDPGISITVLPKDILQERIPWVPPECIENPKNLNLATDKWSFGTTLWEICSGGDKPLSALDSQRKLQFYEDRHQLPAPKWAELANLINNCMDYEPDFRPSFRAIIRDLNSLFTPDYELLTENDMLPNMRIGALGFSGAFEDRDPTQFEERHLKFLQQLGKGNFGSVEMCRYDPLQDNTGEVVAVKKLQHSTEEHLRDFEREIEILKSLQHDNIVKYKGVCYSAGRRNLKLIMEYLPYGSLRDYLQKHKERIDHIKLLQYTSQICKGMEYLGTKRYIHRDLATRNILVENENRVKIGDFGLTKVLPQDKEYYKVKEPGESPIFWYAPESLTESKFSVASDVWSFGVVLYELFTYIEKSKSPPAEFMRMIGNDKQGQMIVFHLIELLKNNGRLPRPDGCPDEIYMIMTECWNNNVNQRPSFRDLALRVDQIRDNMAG
IC50 (JAK1),IC50 (JAK2),SMILES
100 to 1000 nM,1 to 10 µM,CC(C)NC(=O)Cn1cc(Nc2ncc(Cl)c(N[C@H](CO)c3ccccc3)n2)cn1 [Compound 67]
1000 to 10000 nM,1 to 10 µM,COCCNC(=O)[C@@H](Nc1nc(Nc2cnn(C)c2)ncc1Cl)c1ccccc1 [Compound 29]
1000 to 10000 nM,1 to 10 µM,CNC(=O)Cn1cc(Nc2ncc(Cl)c(N[C@H](CCO)c3ccccc3)n2)cn1 [Compound 66]
> 10000 nM,≥ 10 µM,OCCn1ccc(Nc2ncc(Cl)c(NC(CO)c3cccc(F)c3)n2)n1 (stereo not shown) [Compound 41]
1000 to 10000 nM,≥ 10 µM,CCNC(=O)[C@@H](Nc1nc(Nc2cnn(C)c2)ncc1Cl)c1ccccc1 [Compound 28]
1000 to 10000 nM,≥ 10 µM,Cc1cnc(Nc2cnn(CCO)c2)nc1NC(CO)c1ccccc1 (stereo not shown) [Compound 12]
1000 to 10000 nM,1 to 10 µM,CC(C)OC(=O)Cn1cc(Nc2ncc(Cl)c(N[C@H](CO)c3ccccc3)n2)cn1 [Compound 21]
1000 to 10000 nM,≥ 10 µM,Cn1cc(Nc2ncc(Cl)c(NC(CO)c3cccc(Br)c3)n2)cn1 (stereo not shown) [Compound 52]
> 10000 nM,≥ 10 µM,COC[C@@H](Nc1nc(Nc2cnn(C)c2)ncc1Cl)c1ccccc1 [Compound 55]
100 to 1000 nM,1 to 10 µM,OC[C@@H](Nc1nc(Nc2cn[nH]c2)ncc1Cl)c1ccccc1F [Compound 79]
1000 to 10000 nM,1 to 10 µM,OCCCn1cc(Nc2ncc(Cl)c(NC(CO)c3ccccc3F)n2)cn1 (stereo not shown) [Compound 64]
1000 to 10000 nM,1 to 10 µM,O=C([C@@H](Nc1nc(Nc2cnn(CCO)c2)ncc1Cl)c1ccccc1)N1CCCC1 [Compound 35]
> 10000 nM,≥ 10 µM,Cn1ccc(Nc2ncc(Cl)c(N[C@H](CO)c3ccccc3)n2)n1 [Compound 11]
1000 to 10000 nM,≥ 10 µM,OCCn1cc(Nc2ncc(Cl)c(N[C@@H](CO)c3ccccc3)n2)cn1 [Compound 63]
